Entries after “also recorded” stand apart in the source; their conditions may differ.
Columns and labels:
[1] = detectable pH range of the fluorescent pH indicator; taken from probes.invitrogen.com handbook table; cited from earlier work
[2] = fluorescence intensity of ageladine A as a function of the pH of the solution; type: physicochemical
Text: The optical measurement method according to an embodiment of the present invention includes an alternative fluorescent pH indicator based on ageladine A. Ageladine A is a known natural marine substance in the form of a pyrrole-imidazole alkaloid which has heretofore been used exclusively for medical purposes. Ageladine A can be obtained both from marine sponges and produced synthetically. It is therefore readily possible, by means of the total syntheses described, to prepare large quantities of ageladine A without having to have recourse to marine sponges. […] When using ageladine A as a fluorescent pH indicator, pH changes of the medium to be investigated between pH4 and pH9 can be reliably optically indicated by means of a changeable fluorescence intensity in such a manner that the emitted fluorescence intensity increases as the pH falls. […] Advantageously, samples that have been taken (in vitro), but also living cells, tissue and entire organisms (in vivo) can be incubated with ageladine A as fluorescent pH indicator and stained in this manner by means of the fluorescence in the green range. This enables measurements of the pH in vivo and in vitro in a wide range and thus the detection of acidic tissue in organisms due to its fluorescence properties. The fluorescence in the green range increases markedly as the pH falls. […] The fluorescence intensity was measured at 510 nm. […]

[3] = system: PC-12 cells; assay: staining of cells with ageladine A and measurement of intracellular pH; type: cell-based, rat; conditions: PC-12 cells incubated with ageladine A, excitation 380 nm
Description: FIGS. 2A, 2B show images, at 400-times magnification, of cells (PC-12 cells, rat, deposited at DSMZ) incubated with ageladine A and stained by means of the same. Excitation took place using UV light with a wavelength of 380 nm.
The fluorescence ratio value (340 nm/380 nm) is plotted over time (time in s). The various pHs of the buffer solution are marked as parameters on the graph. It can clearly be recognized that the fluorescence emission follows the extracellular increase of the pH of the solution in a wide range (pH6.5 to pH3). The change of the intracellular pH is only a few tenths around pH7, as a result of which a very high measurement resolution of the pH indicator results.

[4] = system: shrimp (Palaemonetes argentinus); assay: in-vivo staining of a living organism with ageladine A
Text: The green curve (lowest straight curve) indicates fluorescence intensity values within the buffer solution outside of the shrimp, the red and blue curves (middle and upper curved curves) indicate fluorescence intensity values within the shrimp and thus, in a simple manner, easily recognizable and detectable acidic constituents of the shrimp.

Row | SMILES | PH RANGE [1] | stability of the stainings ([2]; cells, tissue, organisms incubated with ageladine A) | stability of fluorescence under UV irradiation ([2]; despite UV irradiation) | staining of cells [3] | penetration into tissue ([4]; intact, living organisms, on account of lipophilic structure (bromination)) | in-vivo staining of tissue ([4]; shrimp incubated with ageladine A, irradiated with UV light)
1 | O=c1c2cccc3c(NCCN4CCOCC4)ccc(c32)c2nc3ccccc3n12 [LysoSensor Green DND-189] | 4.5-6.0 | – | – | – | – | –
2 | Nc1nc2ccnc(-c3cc(Br)c(Br)[nH]3)c2[nH]1 [ageladine A] | – | stable over hours to days; also recorded: last for at least a plurality of days | stable for hours | stained | penetrates very quickly and far into the tissue | acidic structures (mouth-digestive region) in the shrimp were stained
3 | O=S(=O)([O-])c1cc(O)c2ccc3c(S(=O)(=O)[O-])cc(S(=O)(=O)[O-])c4ccc1c2c34.[Na+].[Na+].[Na+] [HPTS (pyranine), pyranine] | 7.0-8.0 | – | – | – | – | –
